According to PubChem BioAssay AID1963870 (Molecular Pharmacology Branch, DTP, NCI, 2024):

Test system: 292921-168-R-J2-PDC KRAS tumor spheroid viability
Test: Anticancer human tumor 292921-168-R-J2-PDC patient-derived pancreatic carcinoma cell line growth inhibition [KRAS2]
Conditions: spheroids with HUVEC and MSC; for IC50: curve of first compound; for viability, T/C: stronger effect = lower value
Source text: Multicellular complex tumor spheroid response to RAS pathway inhibitors in combination with a targeted agents in patient-derived cell lines with oncogenic KRAS variants from multiple cancer types
A high-throughput screen of multi-cell type tumor spheroids was designed to identify active combinations of targeted small molecules and KRAS pathway inhibitors. Complex spheroids include a stromal component modeled by human endothelial cells (HUVEC) and fibroblasts modeled by human mesenchymal stem cells (MSCs). The concentration ranges selected for each drug and investigational agent were based upon clinically achievable concentrations if the clinical Cmax of the agent was known.
Compounds. The drugs and investigational agents: BI-3406 (NSC825286), BAY-293 (NSC824723), batoprotafib (TNO155; NSC825523), sotorasib (AMG 510; NSC818433), MRTX1257 (NSC819558), elimusertib (BAY 1895344; NSC800525), molibresib (GSK525762; NSC774829), temuterkib (LY3214996; NSC803410), venetoclax (NSC766270), alisertib (NSC759677), olaparib (NSC753686), talazoparib (NSC767125), erdafitinib (NSC781556), ipatasertib (NSC767898), cabozantinib (NSC761068), nintedanib (NSC756659), abemaciclib (NSC768073), docetaxel (NSC628503), trametinib (NSC758246), and sapanisertib (NSC764658) were obtained from the National Cancer Institute (NCI) Developmental Therapeutics Program Chemical Repository. The FDA-approved anticancer drug set is available from the Developmental Therapeutics Program. […] The stock solutions were prepared in dimethyl sulfoxide (DMSO, Sigma-Aldrich, St. Louis, MO, cat. D2650) at 800-fold the tested concentration and stored at -70 degrees C prior to their use. All drugs and investigational agents were tested over a range starting from a high concentration at or near the clinical Cmax and decreasing in half-log increments. If the clinical Cmax for an agent had not been determined, the highest concentration tested was 10 microM.
Cell Culture. All cells were maintained in an incubator at 37 degrees C and 5% CO2 with 95% humidity. The PDC lines were cultured according to standard operating procedures established by the NCI PDMR (https://pdmr.cancer.gov/sops/default.htm). Briefly, all PDCs were thawed and cultured in Matrigel-coated flasks prepared with a working solution of 1X Ham's F-12 nutrient mix, without supplementation (Invitrogen, Waltham, MA, cat. 11765054), 100 U/mL penicillin-streptomycin (Invitrogen, cat. 15140122), and 2.5% Matrigel (Corning Inc., Corning, NY, cat. 354248) for the first three passages. All PDCs were cultured in complete DMEM/F-12 media containing advanced DMEM/F-12 (Invitrogen, cat. 12634028), 4.9% defined fetal bovine serum, heat inactivated (HyClone Laboratories Inc., Logan, UT, cat. SH30070.03HI), 389 ng/mL hydrocortisone (Sigma-Aldrich, cat. H4001), 9.7 ng/mL human EGF recombinant protein (Invitrogen, cat. PHG0313), 23.4 microg/mL adenine (Sigma-Aldrich, cat. A2786), 97.3 U/mL penicillin-streptomycin (Invitrogen, cat. 15140122), 1.9 mM L-glutamine (Invitrogen, cat. 25030081), and 9.7 microM Y-27632 dihydrochloride (Tocris Bioscience, Bristol, United Kingdom, cat. 1254). The PDCs were cultured in complete DMEM/F12 media without 9.7 microM Y-27632 dihydrochloride for at least two passages prior to the screen. The established cell line HOP-62 was cultured in RPMI 1640 medium, HEPES (Invitrogen, cat. 22400105) with 10% defined fetal bovine serum (HyClone Laboratories Inc., cat. SH30070.03) and 2 mM L-glutamine (Invitrogen, cat. 25030081). The pooled donor HUVEC were cultured in endothelial cell growth medium 2 (PromoCell, Heidelberg, Germany, cat. C-22011) and the hMSC were cultured in mesenchymal stem cell growth medium 2 (PromoCell, cat. C-28009). For all experiments, HUVEC and hMSC were used at passages </=5, while the malignant cell lines were used at passages </=15. […]

[1] = second compound 0.1 µM, first compound 0.0316 µM
[2] = second compound 0.1 µM, first compound 0.1 µM
[3] = second compound 0.1 µM, first compound 0.316 µM
[4] = second compound 0.1 µM, first compound 1 µM
[5] = second compound 0.1 µM, first compound 3.16 µM
[6] = second compound 0.1 µM, first compound 10 µM
[7] = second compound 0.316 µM, first compound 0.0316 µM
[8] = second compound 0.316 µM, first compound 0.1 µM
[9] = second compound 0.316 µM, first compound 0.316 µM
[10] = second compound 0.316 µM, first compound 1 µM
[11] = second compound 0.316 µM, first compound 3.16 µM
[12] = second compound 0.316 µM, first compound 10 µM
[13] = second compound 1 µM, first compound 0.0316 µM
[14] = second compound 1 µM, first compound 0.1 µM
[15] = second compound 1 µM, first compound 0.316 µM
[16] = second compound 1 µM, first compound 1 µM
[17] = second compound 1 µM, first compound 3.16 µM
[18] = second compound 1 µM, first compound 10 µM
[19] = second compound 3.16 µM, first compound 0.0316 µM
[20] = second compound 3.16 µM, first compound 0.1 µM
[21] = second compound 3.16 µM, first compound 0.316 µM
[22] = second compound 3.16 µM, first compound 1 µM
[23] = second compound 3.16 µM, first compound 3.16 µM
[24] = second compound 3.16 µM, first compound 10 µM
[25] = second compound 10 µM, first compound 0.0316 µM
[26] = second compound 10 µM, first compound 0.1 µM
[27] = second compound 10 µM, first compound 0.316 µM
[28] = second compound 10 µM, first compound 1 µM
[29] = second compound 10 µM, first compound 3.16 µM
[30] = second compound 10 µM, first compound 10 µM
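Also: drug exposure lasted seven days after spheroids formed for three days.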
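For viability, T/C in this document: percent of DMSO vehicle control viability which is 100%.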

## CCNC(=O)CC1N=C(c2ccc(Cl)cc2)c2cc(OC)ccc2-n2c(C)nnc21 (stereo not given) + CC1OCC2(CCN(c3cnc(Sc4ccnc(N)c4Cl)c(N)n3)CC2)C1N
Second compound 0.1 µM
  IC50: 287 nM
Second compound 0.316 µM
  IC50: 48.4 nM
Second compound 1 µM
  IC50: < 31.6 nM
Second compound 3.16 µM
  IC50: < 31.6 nM
Second compound 10 µM
  IC50: < 31.6 nM
[1]
  viability, T/C: 69.1%
[2]
  viability, T/C: 60.6%
[3]
  viability, T/C: 48.1%
[4]
  viability, T/C: 40.1%
[5]
  viability, T/C: 29.4%
[6]
  viability, T/C: 27.5%
[7]
  viability, T/C: 53.5%
[8]
  viability, T/C: 45.5%
[9]
  viability, T/C: 31.4%
[10]
  viability, T/C: 31.7%
[11]
  viability, T/C: 25.1%
[12]
  viability, T/C: 19.7%
[13]
  viability, T/C: 45.6%
[14]
  viability, T/C: 43.7%
[15]
  viability, T/C: 33.5%
[16]
  viability, T/C: 31.6%
[17]
  viability, T/C: 19.9%
[18]
  viability, T/C: 18.3%
[19]
  viability, T/C: 37.4%
[20]
  viability, T/C: 34.6%
[21]
  viability, T/C: 26.2%
[22]
  viability, T/C: 23%
[23]
  viability, T/C: 20%
[24]
  viability, T/C: 16.1%
[25]
  viability, T/C: 33.8%
[26]
  viability, T/C: 31.1%
[27]
  viability, T/C: 28.4%
[28]
  viability, T/C: 23.1%
[29]
  viability, T/C: 20.9%
[30]
  viability, T/C: 17.3%

## CC(C)NCC(C(=O)N1CCN(c2ncnc3c2C(C)CC3O)CC1)c1ccc(Cl)cc1 (stereo not given) + CNCc1ccccc1-c1csc(C(C)Nc2nc(C)nc3cc(OC)c(OC)cc23)c1
Second compound 0.1 µM
  IC50: 7140 nM
Second compound 0.316 µM
  IC50: 5150 nM
Second compound 1 µM
  IC50: 597 nM
Second compound 3.16 µM
  IC50: < 31.6 nM
Second compound 10 µM
  IC50: < 31.6 nM
[1]
  viability, T/C: 80.5%
[2]
  viability, T/C: 88.9%
[3]
  viability, T/C: 74.1%
[4]
  viability, T/C: 77.3%
[5]
  viability, T/C: 67.8%
[6]
  viability, T/C: 42.5%
[7]
  viability, T/C: 76.9%
[8]
  viability, T/C: 70.6%
[9]
  viability, T/C: 65.1%
[10]
  viability, T/C: 65.4%
[11]
  viability, T/C: 62.6%
[12]
  viability, T/C: 35.6%
[13]
  viability, T/C: 59.9%
[14]
  viability, T/C: 55.4%
[15]
  viability, T/C: 49.5%
[16]
  viability, T/C: 46.7%
[17]
  viability, T/C: 42.2%
[18]
  viability, T/C: 22.9%
[19]
  viability, T/C: 0.1%
[20]
  viability, T/C: 0.09%
[21]
  viability, T/C: 0.37%
[22]
  viability, T/C: 0.1%
[23]
  viability, T/C: 0.07%
[24]
  viability, T/C: 0.36%
[25]
  viability, T/C: 0.09%
[26]
  viability, T/C: 0.08%
[27]
  viability, T/C: 0.25%
[28]
  viability, T/C: 0.36%
[29]
  viability, T/C: 0.09%
[30]
  viability, T/C: 0.3%

## CC(C)NCC(C(=O)N1CCN(c2ncnc3c2C(C)CC3O)CC1)c1ccc(Cl)cc1 (stereo not given) + CC1OCC2(CCN(c3cnc(Sc4ccnc(N)c4Cl)c(N)n3)CC2)C1N
Second compound 0.1 µM
  IC50: 5030 nM
Second compound 0.316 µM
  IC50: 3620 nM
Second compound 1 µM
  IC50: < 31.6 nM
Second compound 3.16 µM
  IC50: < 31.6 nM
Second compound 10 µM
  IC50: < 31.6 nM
[1]
  viability, T/C: 67.3%
[2]
  viability, T/C: 65.3%
[3]
  viability, T/C: 65%
[4]
  viability, T/C: 67%
[5]
  viability, T/C: 58%
[6]
  viability, T/C: 36.8%
[7]
  viability, T/C: 51.1%
[8]
  viability, T/C: 57%
[9]
  viability, T/C: 56.8%
[10]
  viability, T/C: 55.7%
[11]
  viability, T/C: 52.3%
[12]
  viability, T/C: 31.1%
[13]
  viability, T/C: 46.2%
[14]
  viability, T/C: 42.9%
[15]
  viability, T/C: 48.1%
[16]
  viability, T/C: 46.1%
[17]
  viability, T/C: 39.3%
[18]
  viability, T/C: 25.9%
[19]
  viability, T/C: 36.1%
[20]
  viability, T/C: 36.5%
[21]
  viability, T/C: 39.9%
[22]
  viability, T/C: 41.7%
[23]
  viability, T/C: 37.4%
[24]
  viability, T/C: 22.7%
[25]
  viability, T/C: 33.6%
[26]
  viability, T/C: 33.8%
[27]
  viability, T/C: 39.4%
[28]
  viability, T/C: 33.8%
[29]
  viability, T/C: 32.9%
[30]
  viability, T/C: 20.6%
